The results in this text go back to patent US20230227437A1, “IMMUNOMODULATOR” (priority 2020, published 2023).

A word on the IC50: it is the midpoint of a concentration-inhibition curve. Lower therefore signals inhibition by little substance.

The target in test [1] is T1, human IL-17A (hIL-17A) (Homo sapiens, UniProt Q16552).
T1 construct: purchased Sino Biological Inc. 12047-H07B
T1 sequence (Q16552 24-155): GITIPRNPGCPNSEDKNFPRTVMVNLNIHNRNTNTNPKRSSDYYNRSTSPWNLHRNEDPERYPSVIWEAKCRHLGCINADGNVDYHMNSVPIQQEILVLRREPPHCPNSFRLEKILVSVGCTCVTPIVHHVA
The test is described as follows: IL-17A enzyme-linked immunosorbent assay (competitive ELISA, receptor-ligand binding). How it is done:
The inhibition of receptor-ligand binding by human IL-17A (hIL-17A) inhibitors was detected by competitive ELISA. A 96-well plate was inoculated 0.2 μg/ml IL-17 (Sino Biological Inc. Cat #12047-H07B) for incubation at 37° C. for 30 min, 100 μL for per well. The 96-well plate was washed four times with phosphate buffered saline (PBS) containing Tween-20 (PBST, 0.05% Tween-20), 200 μL for per well each time. 200 μL of 5% skim milk were added into the 96-well plate for incubation on a shaker at 25° C. for 30 min. The 96-well plate was washed four times with PBST (0.05% Tween-20), and added with 89 μL of PBST and 1 μL of a compound to be measured (100×), in which a concentration the compound to be measured (100×) was 0.003 μM-30 μM. The mixture was mixed evenly and incubated at 25° C. for 10 min. The mixture was added with 10 μL of 16 nM IL-17R, followed by incubation at 25° C. for 30 min. After washing the 96-well plate 4 times, 100 μL of anti-Fc tag horseradish peroxidase (HRP) coupled antibody were added for incubation on a shaker at 25° C. for 30 min. After washing the 96-well plate 4 times, 100 μL of 3,3′,5,5′-tetramethylbenzidine (TMB) substrate solution were added to the 96-well plate for incubation away from light at 25° C. After addition of 20% HCl, an absorbance was measure by a microplate reader at 450 nm.
The compounds prepared according to the above method were assayed for human IL-17A inhibitory activity.

The target of test [2] is T2, hIL-17A (Homo sapiens, UniProt Q16552).
T2 construct: purchased R&D 317-ILB
T2 sequence (Q16552 20-155 limits assumed): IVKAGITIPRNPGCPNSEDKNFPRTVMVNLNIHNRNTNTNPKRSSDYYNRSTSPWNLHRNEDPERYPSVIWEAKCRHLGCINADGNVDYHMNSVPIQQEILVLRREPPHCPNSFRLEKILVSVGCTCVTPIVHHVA
The test is described as follows: Inhibition of hIL-17A-induced chemokine GROα/CXCL1 production in HT-29 cell. The test is classed as cell-based. How it is done: Human colorectal adenocarcinoma cell HT-29 was inoculated to a 96-well plate (5×10^4 for per well), and incubated at 37° C. on an incubator overnight. A mixture of 30 ng/mL hIL-17A protein (R&D, #317-ILB) with gradient concentrations of IL-17A small molecule inhibitors or with 0.3 μg/mL positive control IL-17A antibody (R&D, #AF-317-NA) was incubated for 1 h at 37° C., and added into the 96-well plate to incubated with HT-29 at 37° C. for 48 h. A level of GROα in a cell culture supernatant was then detected using an ELISA kit for GROα (Cisbio, #62HCXC1peg).
Inhibitory effect of the compound prepared in Examples on hIL-17A-induced chemokine GROα/CXCL1 production in HT-29 cell was tested according to the methods of Experimental Examples 1 and 2. […] “-” indicated not tested. According to the results, the compounds provided herein have good human IL-17A inhibitory activity and can be effectively used in the treatment of diseases associated with abnormal hIL-17A activity.

In the case of `Cc1n[nH]c(C)c1-c1ncc(NC(=O)[C@@H](NC(=O)c2nonc2C(C)C)C2c3ccc(F)c(F)c3OCC23CC3)cc1F` (stereo partly drawn) [Compound 64], the IC50 in test [1] worked out at 154 nM; in test [2], 335 nM.
In the same order, the values of `Cc1n[nH]c(C)c1-c1ccc(NC(=O)[C@@H](NC(=O)c2nonc2C(C)C)C2c3ccc(F)c(F)c3OCC23CC3)cc1` (stereo partly drawn) [Compound 65] are 222 nM and 212 nM.
With `Cc1n[nH]c(C)c1-c1ccc(NC(=O)[C@@H](NC(=O)c2nonc2C2CC2)C2c3c(F)cc(F)cc3OCC23CC3)cc1` (stereo partly drawn) [Compound 67], the values for the IC50 in test [1] and in test [2] were 577 nM and 557 nM, respectively.
`Cc1n[nH]c(C)c1-c1ncc(NC(=O)[C@@H](NC(=O)c2nonc2C(C)C)C2c3cc(F)cc(F)c3OCC23CC3)cc1F` (stereo partly drawn) [Compound 68]: the IC50 in test [1] worked out at 503 nM; in test [2], 1940 nM.
Take `Cc1nonc1C(=O)N[C@H](C(=O)Nc1ccc(-c2c(C)n[nH]c2C)cc1)C1c2cc(F)cc(F)c2OCC12CC2` (stereo partly drawn) [Compound 69]: the values for the IC50 in test [1] and in test [2] were 288 nM and 941 nM, respectively.
As to `Cc1n[nH]c(C)c1-c1ccc(NC(=O)[C@@H](NC(=O)c2ccnn2C(C)C)C2c3cc(F)cc(F)c3OCC23CC3)cc1` (stereo partly drawn) [Compound 70], the IC50 amounted to 201 nM in test [1] and 112 nM in test [2].
On to `Cc1n[nH]c(C)c1-c1ncc(NC(=O)[C@@H](NC(=O)c2ccnn2C(C)C)C2c3cc(F)cc(F)c3OCC23CC3)cc1F` (stereo partly drawn) [Compound 72], for which the values for the IC50 in test [1] and in test [2] were 343 nM and 1810 nM, respectively.
As for `Cc1n[nH]c(C)c1-c1ccc(NC(=O)[C@@H](NC(=O)c2nonc2C(C)C)C2c3cc(F)cc(F)c3OCC23CC3)cn1` (stereo partly drawn) [Compound 73], the IC50 in test [1] stood at 294 nM; in test [2], 795 nM.
For the compound `Cc1n[nH]c(C)c1-c1ccc(NC(=O)[C@@H](NC(=O)c2nonc2C(C)C)C2c3cc(F)cc(F)c3OCC23CC3)cc1` (stereo partly drawn) [Compound 74], the values for the IC50 in test [1] and in test [2] were 413 nM and 609 nM, respectively.
Consider `Cc1n[nH]c(C)c1-c1ccc(NC(=O)[C@@H](NC(=O)c2ccnn2C(C)C)C2c3c(F)ccc(F)c3OCC23CC3)cc1` (stereo partly drawn) [Compound 76], for which the IC50 in test [1] was determined as 270 nM; in test [2], 1050 nM.
For `CCc1nonc1C(=O)N[C@H](C(=O)Nc1ccc(-c2c(C)n[nH]c2C)cc1)C1c2cc(F)cc(F)c2OCC12CC2` (stereo partly drawn) [Compound 77] the same measures were 320 nM and 1010 nM.
On to `Cc1n[nH]c(C)c1-c1ccc(NC(=O)[C@@H](NC(=O)c2nonc2C2CC2)C2c3cc(F)cc(F)c3OCC23CC3)cc1` (stereo partly drawn) [Compound 80], for which the results for the IC50 in test [1] and in test [2] were 406 nM and 762 nM, respectively.
For the compound `COCc1[nH]nc(C)c1-c1ccc(NC(=O)[C@@H](NC(=O)c2nonc2C)C2c3ccc(F)c(F)c3OCC23CC3)cc1` (stereo partly drawn) [Compound 85], the values for the IC50 in test [1] and in test [2] were 133 nM and 1220 nM, respectively.
On to `Cc1n[nH]c(C)c1-c1ncc(NC(=O)[C@@H](NC(=O)c2nonc2C2CC2)C2c3ccc(F)c(F)c3OCC23CC3)cc1F` (stereo partly drawn) [Compound 86], for which the IC50 was determined as 179 nM in test [1] and 718 nM in test [2].
Take `Cc1n[nH]c(C)c1-c1ccc(NC(=O)[C@@H](NC(=O)c2nonc2C2CC2)C2c3ccc(F)c(F)c3OCC23CC3)cc1` (stereo partly drawn) [Compound 87]: the IC50 in test [1] was 165 nM; in test [2] it was 332 nM.
Take `Cc1n[nH]c(C)c1-c1ncc(NC(=O)[C@@H](NC(=O)c2ccnn2C(C)C)C2c3ccc(F)cc3OCC23CC3)cc1F` (stereo partly drawn) [Compound 90]: the IC50 in test [1] turned out to be 144 nM; in test [2], 188 nM.
On to `Cc1n[nH]c(C)c1-c1ncc(NC(=O)[C@@H](NC(=O)c2nonc2C2CC2)C2c3ccc(F)cc3OCC23CC3)cc1F` (stereo partly drawn) [Compound 91], for which the concentration for half-maximal inhibition (IC50) was 67 nM in test [1] and 1080 nM in test [2].
With `Cc1n[nH]c(C)c1-c1ncc(NC(=O)[C@@H](NC(=O)c2nonc2C2CC2)C2c3cc(F)c(F)cc3OCC23CC3)cc1F` (stereo partly drawn) [Compound 92], the IC50 was found to be 187 nM in test [1] and 9650 nM in test [2].
